Results from the C3SDB collision cross section collection.

Key:
[1] = instrument: DT, stepped-field
[2] = instrument: TW, calibrated with polyalanine
[3] = instrument: DT, single field, calibrated with Agilent tune mix (Agilent)
[4] = instrument: TW, calibrated with polyalanine; remark: listed apart in the source
[5] = instrument: DT, stepped-field; remark: listed apart in the source

Structure (SMILES): CCC(C)[C@H](N)C(=O)N[C@@H](Cc1ccccc1)C(=O)N[C@H](C(=O)N[C@@H](CCC(N)=O)C(=O)N[C@@H](CCCCN)C(=O)O)C(C)C (stereo partly drawn) [IFVQK]
- collision cross section (N2) ([1]; [M+2H]2+): 285.5 Å²
- collision cross section (N2) ([1]; [M+H]+): 248.88 Å²

Structure (SMILES): N[C@H]1C(O)O[C@H](CO)[C@@H](O)[C@@H]1O (stereo partly drawn) [Glucosamine]
- collision cross section (N2) ([2]; [M+H]+): 135 Å²
- collision cross section (N2) ([3]; [M+H-H2O]+): 132.9 Å²

Structure (SMILES): C[C@H]1CCCC(=O)CCC/C=C/c2cc(O)cc(O)c2C(=O)O1 [Zearalenone]
- collision cross section (N2) ([4]; [M-H]-): 170 Å²

Structure (SMILES): N[C@H]1[C@@H](OP(=O)(O)O)O[C@H](CO)[C@@H](O)[C@@H]1O [Glucosamine 1-phosphate]
- collision cross section (N2) ([2]; [M+H]+): 153 Å²
- collision cross section (N2) ([3]; [M+Na]+): 158.5 Å²

Structure (SMILES): CC(=O)OC[C@]12C[C@H](O)C(C)=C[C@H]1O[C@@H]1[C@H](O)[C@@H](OC(C)=O)[C@@]2(C)[C@]12CO2 [Neosolaniol]
- collision cross section (N2) ([4]; [M+NH4]+): 198 Å²

Structure (SMILES): CCCCCCCCCCCC(=O)O [Lauric acid]
- collision cross section (N2) ([1]; [M-H]-): 154.82 Å²

Structure (SMILES): CC[C@H](C)[C@H]1C(=O)O[C@H](C(C)C)C(=O)N(C)[C@@H](C(C)C)C(=O)O[C@H](C(C)C)C(=O)N(C)[C@@H](C(C)C)C(=O)O[C@H](C(C)C)C(=O)N1C [Enniatin B1]
- collision cross section (N2) ([4]; [M+H]+): 246.4 Å²
- collision cross section (N2) ([4]; [M+K]+): 254.7 Å²
- collision cross section (N2) ([4]; [M+NH4]+): 253 Å²
- collision cross section (N2) ([4]; [M+Na]+): 253.4 Å²

Structure (SMILES): C=C(C)[C@H]1O[C@H]2CC[C@@]3(C)[C@@](O)(CC[C@H]4[C@@H]5OC(C)(C)[C@H]6C[C@@H]7C(=C)Cc8c(Cl)cc9[nH]c(c5c9c8[C@@]76O)[C@@]43C)[C@]23O[C@@H]3[C@H]1O [Penitrem A]
- collision cross section (N2) ([4]; [M+H]+): 253 Å²

Structure (SMILES): Cc1c[nH]c(=O)[nH]c1=O [Thymine]
- collision cross section (N2) ([2]; [M+H]+): 115 Å²
- collision cross section (N2) ([5]; [M+H]+): 126.14 Å²
- collision cross section (N2) ([3]; [M+H]+): 121.9 Å²
- collision cross section (N2) ([3]; [M-H]-): 117.39 Å²

Structure (SMILES): CC(C)C[C@@H]1NC(=O)[C@H](C)N(C)C(=O)CNC(=O)/C(=C/c2ccccc2)N(C)C1=O [Tentoxin]
- collision cross section (N2) ([4]; [M+H]+): 202 Å²

Structure (SMILES): CC(=O)OC[C@]12C[C@H](OC(=O)CC(C)C)C(C)=C[C@H]1O[C@@H]1[C@H](O)[C@@H](OC(C)=O)[C@@]2(C)[C@]12CO2 [T-2 toxin]
- collision cross section (N2) ([4]; [M+NH4]+): 214 Å²

Structure (SMILES): CNC[C@H](O)c1ccc(O)c(O)c1 [Epinephrine]
- collision cross section (N2) ([2]; [M+H]+): 133 Å²
- collision cross section (N2) ([3]; [M+H-H2O]+): 138.3 Å²
- collision cross section (N2) ([3]; [M-H]-): 137.87 Å²

Structure (SMILES): COc1cc2c(c3oc(=O)c4c(c13)CCOC4=O)[C@@H]1CCO[C@@H]1O2 [Aflatoxin G2]
- collision cross section (N2) ([4]; [M+H]+): 166 Å²
- collision cross section (N2) ([4]; [M+K]+): 181 Å²
- collision cross section (N2) ([4]; [M+Na]+): 176.4 Å²

Structure (SMILES): NCCCC[C@H](N)C(=O)O [L-Lysine]
- collision cross section (N2) ([1]; [M+H]+): 131.62 Å²
- collision cross section (N2) ([5]; [M+H]+): 131.8 Å²
- collision cross section (N2) ([3]; [M+H]+): 130.7 Å²

Structure (SMILES): CC[C@H](C)[C@@H]1NC(=O)C(C(C)=O)=C1O [Tenuazonic acid]
- collision cross section (N2) ([4]; [M+H]+): 135 Å²

Structure (SMILES): CCC(C)C(NC(=O)C(Cc1ccc(O)cc1)NC(=O)C1CCCN1C(=O)C(CCCN=C(N)N)NC(=O)C(CCCN=C(N)N)NC(=O)C1CCCN1C(=O)C(CCCCN)NC(=O)C(CC(N)=O)NC(=O)C(CCC(=O)O)NC(=O)C(Cc1ccc(O)cc1)NC(=O)C(CC(C)C)NC(=O)C1CCC(=O)N1)C(=O)NC(CC(C)C)C(=O)O (stereo not drawn) [Neurotensin]
- collision cross section (N2) ([1]; [M+2H]2+): 434.32 Å²
- collision cross section (N2) ([1]; [M+3H]3+): 525.02 Å²

Structure (SMILES): O=c1[nH]c(=O)c2ncn([C@@H]3O[C@H](CO)[C@@H](O)[C@H]3O)c2[nH]1 [Xanthosine]
- collision cross section (N2) ([2]; [M+H]+): 158 Å²
- collision cross section (N2) ([5]; [M+H]+): 166.49 Å²
- collision cross section (N2) ([5]; [M+Na]+): 177.45 Å²
- collision cross section (N2) ([3]; [M+Na]+): 172.8 Å²

Structure (SMILES): CC(=O)O[C@@H]1[C@@H](O)[C@H]2O[C@@H]3C=C(C)C(=O)[C@@H](O)[C@]3(CO)[C@]1(C)[C@]21CO1 [Fusarenon X]
- collision cross section (N2) ([4]; [M+H3C2O2]-): 195 Å²

Structure (SMILES): CN1CC(=O)N=C1N [Creatinine]
- collision cross section (N2) ([1]; [M+H]+): 123.87 Å²
- collision cross section (N2) ([1]; [M+Na]+): 132.99 Å²
- collision cross section (N2) ([1]; [M-H]-): 120.7 Å²
- collision cross section (N2) ([5]; [M+H]+): 123.93 Å²
- collision cross section (N2) ([5]; [M+Na]+): 133.41 Å²
- collision cross section (N2) ([3]; [M+H]+): 123.4 Å²
- collision cross section (N2) ([3]; [M-H]-): 116.68 Å²

Structure (SMILES): NCCCC[C@H](N)C(=O)O [Lysine]
- collision cross section (N2) ([2]; [M+H]+): 127 Å²

Structure (SMILES): N[C@@H](CC(=O)O)C(=O)O [L-Aspartic acid]
- collision cross section (N2) ([1]; [M-H]-): 120.39 Å²

Structure (SMILES): CC(=O)OC[C@]12CCC(C)=C[C@H]1O[C@@H]1[C@H](O)[C@@H](OC(C)=O)[C@@]2(C)[C@@]12CO2 [Diacetoxyscirpenol]
- collision cross section (N2) ([4]; [M+NH4]+): 192 Å²

Structure (SMILES): Nc1ccc(C(=O)O)cc1 [PABA]
- collision cross section (N2) ([2]; [M+H]+): 131 Å²

Structure (SMILES): Cc1ncc(CO)c(C(=O)O)c1O [Pyridoxic acid]
- collision cross section (N2) ([2]; [M+H]+): 130 Å²

Structure (SMILES): CCC(C)[C@H](NC(=O)CNC(=O)[C@H](C)NC(=O)[C@H](Cc1ccccc1)NC(=O)[C@@H](NC(=O)[C@@H](N)CCSC)C(C)CC)C(=O)N[C@@H](CCCCN)C(=O)O (stereo partly drawn) [MIFAGIK]
- collision cross section (N2) ([1]; [M+2H]2+): 305.66 Å²
- collision cross section (N2) ([1]; [M+H]+): 275.34 Å²

Structure (SMILES): OC[C@H]1O[C@@](CO)(O[C@H]2O[C@H](CO)[C@@H](O)[C@H](O)[C@H]2O)[C@@H](O)[C@@H]1O [sucrose]
- collision cross section (N2) ([2]; [M+Na]+): 170 Å²

Structure (SMILES): CCCCCCCCCCCCCCCC(=O)O [Palmitic acid]
- collision cross section (N2) ([1]; [M-H]-): 169.12 Å²
- collision cross section (N2) ([3]; [M+Na]+): 195 Å²
- collision cross section (N2) ([3]; [M-H]-): 167.52 Å²

Structure (SMILES): NC(CCS)C(=O)O (racemic) [DL-Homocysteine]
- collision cross section (N2) ([1]; [M+H]+): 130.78 Å²

Structure (SMILES): NCCS(=O)(=O)O [Taurine]
- collision cross section (N2) ([2]; [M+H]+): 124 Å²
- collision cross section (N2) ([3]; [M+H-H2O]+): 135.4 Å²

Structure (SMILES): C[C@]12CCC(=O)C=C1CC[C@@H]1[C@@H]2[C@@H](O)C[C@@]2(C)[C@H]1CC[C@]2(O)C(=O)CO [Hydrocortisone]
- collision cross section (N2) ([1]; [M+H]+): 189.27 Å²
- collision cross section (N2) ([1]; [M+Na]+): 213.72 Å²
- collision cross section (N2) ([3]; [M-H2O-H]-): 182.99 Å²

Structure (SMILES): CCC(C)[C@H](NC(=O)[C@H](CC(C)C)NC(=O)[C@H](CC(=O)O)NC(=O)[C@@H](N)CCC(=O)O)C(=O)N[C@@H](C)C(=O)N[C@@H](Cc1ccc(O)cc1)C(=O)N[C@@H](CC(C)C)C(=O)N[C@@H](CCCCN)C(=O)O (stereo partly drawn) [EDLIAYLK]
- collision cross section (N2) ([1]; [M+2H]2+): 340.98 Å²
- collision cross section (N2) ([1]; [M+H]+): 307.47 Å²
